Laboratory results as given in ChEMBL document CHEMBL3596121, “Naphthalene and 2,3-dihydrobenzo[b][1,4]dioxine derivatives with extended side chains as new scaffolds of CB2-selective ligands” (Medchemcomm, 2014).

Assays:
Cannabinoid receptor 1 [1] = target: T1, Cannabinoid receptor 1 (Homo sapiens, UniProt P21554); assay: Displacement of human recombinant CB1 receptor expressed in HEK293 cell membranes incubated for 90 mins by radioligand binding assay; format: cell-based
Cannabinoid receptor 1 [2] = target: T1, Cannabinoid receptor 1; assay: Displacement of human recombinant CB1 receptor expressed in HEK293 cell membranes incubated for 90 mins by Cheng-Prusoff equation based analysis
Cannabinoid receptor 2 [3] = target: T2, Cannabinoid receptor 2 (Homo sapiens, UniProt P34972); assay: Displacement of human recombinant CB2 receptor expressed in HEK293 cell membranes incubated for 90 mins by radioligand binding assay; format: cell-based
Cannabinoid receptor 2 [4] = target: T2, Cannabinoid receptor 2; assay: Displacement of human recombinant CB2 receptor expressed in HEK293 cell membranes incubated for 90 mins by Cheng-Prusoff equation based analysis
Cannabinoid receptor 1 [5] = target: T1, Cannabinoid receptor 1; settings: HEK293, at 10 µM
Description: Maximum displacement of human recombinant CB1 receptor expressed in HEK293 cell membranes at 10 uM incubated for 90 mins by radioligand binding assay

Cannabinoid receptor 2 [6] = target: T2, Cannabinoid receptor 2; settings: HEK293, at 10 µM
Description: Maximum displacement of human recombinant CB2 receptor expressed in HEK293 cell membranes at 10 uM incubated for 90 mins by radioligand binding assay

HEK293 = assay: Selectivity index, ratio of Ki for human recombinant CB1 receptor expressed in HEK293 cell membranes to Ki for human recombinant CB2 receptor expressed in HEK293 cell membranes; format: cell-based

T2 sequence (P34972 whole entry): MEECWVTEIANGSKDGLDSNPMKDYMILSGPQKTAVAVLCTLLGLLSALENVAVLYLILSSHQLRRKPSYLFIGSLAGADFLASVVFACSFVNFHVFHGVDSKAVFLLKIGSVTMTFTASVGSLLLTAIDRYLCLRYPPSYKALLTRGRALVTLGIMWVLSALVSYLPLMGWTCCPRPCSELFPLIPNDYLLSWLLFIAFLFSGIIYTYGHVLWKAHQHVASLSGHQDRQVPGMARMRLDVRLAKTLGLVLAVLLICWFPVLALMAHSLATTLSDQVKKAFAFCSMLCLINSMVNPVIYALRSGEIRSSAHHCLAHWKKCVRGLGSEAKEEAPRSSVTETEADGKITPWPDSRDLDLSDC
T1 sequence (P21554 whole entry): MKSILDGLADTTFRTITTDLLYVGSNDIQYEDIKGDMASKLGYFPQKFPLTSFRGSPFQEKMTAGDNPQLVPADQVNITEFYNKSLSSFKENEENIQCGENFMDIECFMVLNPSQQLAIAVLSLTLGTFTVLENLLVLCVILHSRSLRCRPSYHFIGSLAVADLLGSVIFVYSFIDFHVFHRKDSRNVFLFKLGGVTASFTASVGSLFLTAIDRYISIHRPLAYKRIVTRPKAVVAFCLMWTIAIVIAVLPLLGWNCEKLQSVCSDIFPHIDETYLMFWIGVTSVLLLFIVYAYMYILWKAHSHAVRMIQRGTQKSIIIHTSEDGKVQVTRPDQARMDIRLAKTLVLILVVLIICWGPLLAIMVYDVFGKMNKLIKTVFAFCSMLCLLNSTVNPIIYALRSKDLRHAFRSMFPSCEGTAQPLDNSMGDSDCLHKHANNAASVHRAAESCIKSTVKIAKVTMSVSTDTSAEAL

SMILES | IC50 (Cannabinoid receptor 1 [1]) | Ki (Cannabinoid receptor 1 [2]) | IC50 (Cannabinoid receptor 2 [3]) | Ki (Cannabinoid receptor 2 [4]) | Imax (Cannabinoid receptor 1 [5]) | Imax (Cannabinoid receptor 2 [6]) | Ratio Ki (HEK293) | log(ratioKi) (HEK293)
O=C(CCCCCOc1cccc2ccccc12)NC1CC1 | > 10 µM | > 10 µM | > 10 µM | > 10 µM | 24.7% | 27.8% |  | 
O=C(/C=C/C=C/c1ccc2c(c1)-c1ccccc1C2)NC1CC1 | > 10 µM | > 10 µM | > 10 µM | > 10 µM | 13.6% | 36.1% |  | 
CCOC(=O)CNC(=O)/C=C/C=C/c1ccc2c(c1)OCCO2 | > 10 µM | > 10 µM | 9.69 µM | 2.56 µM | 4.77% | 55.1% | > 3.9 | 
O=C(CCCCCOc1ccc2ccccc2c1)NC1CC1 | > 10 µM | > 10 µM | > 10 µM | > 10 µM | 44.8% | 31.4% |  | 
O=C(/C=C/C=C/c1ccc2ccccc2c1)NC1CC1 | > 10 µM | > 10 µM | 3.02 µM | 0.81 µM | 18.5% | 58.5% | > 12.2 | 
CCOC(=O)CNC(=O)CCCCCOc1ccc2ccccc2c1 | > 10 µM | > 10 µM | > 10 µM | > 10 µM | 6.46% | 25.5% |  | 
CCNC(=O)NCCCCCOc1cccc2ccccc12 | > 10 µM | > 10 µM | > 10 µM | > 10 µM | 18.5% | 23.8% |  | 
CCCC(C)(C)c1ccc2c(c1)OC(C)(C)[C@@H]1CC=C(C)C[C@@H]21 | > 10 µM | > 10 µM | 0.55 µM | 0.14 µM | < 50% | 50% | > 71.4 | 
CCNC(=O)NCCCCCOc1ccc2ccccc2c1 | > 10 µM | > 10 µM | > 10 µM | > 10 µM | 9.27% | 27.1% |  | 
CC1(Cc2ccccc2)COc2cc(C(=O)N3CCCCC3)ccc21 (centres undefined) |  | > 10 µM |  |  |  |  |  | 1.37
CCS(=O)(=O)NCCCCCOc1cccc2ccccc12 | > 10 µM | > 10 µM | > 10 µM | > 10 µM | 7.86% | 30.9% |  | 
O=C(CCCCCOc1ccc2ccccc2c1)NCCO | > 10 µM | > 10 µM | > 10 µM | > 10 µM | 3.65% | 3.6% |  | 
O=C(/C=C/C=C/c1ccc2c(c1)-c1ccccc1C2)NCCO | > 10 µM | > 10 µM | > 10 µM | > 10 µM | 0% | 24.2% |  | 
CCNC(=O)NCCCCCSc1ccc2ccccc2c1 | > 10 µM | > 10 µM | 2.11 µM | 0.56 µM | 16.9% | 68.2% | > 17.9 | 1.3
CCOC(=O)CNC(=O)/C=C/C=C/c1ccc2c(c1)-c1ccccc1C2 | > 10 µM | > 10 µM | > 10 µM | > 10 µM | 5.47% | 39.1% |  | 
O=C(CCCCCOc1cccc2ccccc12)NCCO | > 10 µM | > 10 µM | > 10 µM | > 10 µM | 27% | 14.8% |  | 
O=C(/C=C/C=C/c1ccc2c(c1)OCCO2)NC1CC1 | > 10 µM | > 10 µM | > 10 µM | > 10 µM | 6.18% | 26.5% |  | 
NC(=O)NCCCCCOc1ccc2c(c1)OCO2 | > 10 µM | > 10 µM | > 10 µM | > 10 µM | 2.39% | 22.1% |  | 
CCS(=O)(=O)NCCCCCOc1ccc2ccccc2c1 | > 10 µM | > 10 µM | > 10 µM | > 10 µM | 11.9% | 23.7% |  | 
CCS(=O)(=O)NCCCCCSc1ccc2ccccc2c1 | > 10 µM | > 10 µM | 5.02 µM | 1.32 µM | 23.6% | 63.3% | > 7.58 | 
CCNC(=O)NCCCCCOc1ccc2c(c1)OCO2 | > 10 µM | > 10 µM | > 10 µM | > 10 µM | 3.38% | 22.6% |  | 
NC(=O)NCCCCCOc1cccc2ccccc12 | > 10 µM | > 10 µM | > 10 µM | > 10 µM | 6.88% | 4.6% |  | 
O=C(/C=C/C=C/c1ccc2ccccc2c1)NCCO | > 10 µM | > 10 µM | 4.81 µM | 1.27 µM | 4.91% | 54.6% | > 7.87 | 
CCS(=O)(=O)NCCCCCOc1ccc2c(c1)OCO2 | > 10 µM | > 10 µM | > 10 µM | > 10 µM | 3.37% | 29.5% |  | 
CCOC(=O)CNC(=O)/C=C/C=C/c1ccc2ccccc2c1 | > 10 µM | > 10 µM | > 10 µM | > 10 µM | 2.24% | 48.5% |  | 
CCOC(=O)CNC(=O)CCCCCOc1cccc2ccccc12 | > 10 µM | > 10 µM | > 10 µM | > 10 µM | 27.7% | 0% |  | 
